PMC4705464, “Sensillar expression and responses of olfactory receptors reveal different peripheral coding in two Helicoverpa species using the same pheromone components” (Scientific Reports, 2016)

How the values were obtained:
Assay in all cases: two-electrode voltage clamp, Xenopus oocytes
Type in all cases: cell-based
HarmOR14b/HarmOrco = biological target: T1, HarmOR14b/HarmOrco (Helicoverpa armigera, UniProt R4JUU3); conditions: agonist; 10^-4 mol/L; with HarmOrco
T1 construct: gene OR14b; full ORF in pT7Ts, cRNA co-expressed with HarmOrco in Xenopus oocytes; alignment of OR14b orthologues over 440 residues; with Odorant receptor coreceptor
T1 sequence (R4JUU3 1-440): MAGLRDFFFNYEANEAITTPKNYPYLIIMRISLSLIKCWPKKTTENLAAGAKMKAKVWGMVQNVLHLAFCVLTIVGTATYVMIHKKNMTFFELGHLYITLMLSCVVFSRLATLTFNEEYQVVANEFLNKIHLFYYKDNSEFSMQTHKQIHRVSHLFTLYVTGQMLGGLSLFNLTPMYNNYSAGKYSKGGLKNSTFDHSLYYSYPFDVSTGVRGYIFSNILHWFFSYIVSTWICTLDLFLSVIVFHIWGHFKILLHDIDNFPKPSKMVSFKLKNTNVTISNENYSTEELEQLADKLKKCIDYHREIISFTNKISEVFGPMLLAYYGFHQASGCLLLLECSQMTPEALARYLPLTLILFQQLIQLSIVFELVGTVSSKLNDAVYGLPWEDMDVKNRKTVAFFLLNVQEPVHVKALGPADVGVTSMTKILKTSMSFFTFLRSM

HassOR16/Orco = biological target: T2, HassOR16/Orco (Helicoverpa assulta, UniProt C6K7C1); conditions: agonist; with Orco
T2 construct: full ORF in pT7Ts, cRNA co-expressed with Orco in Xenopus oocytes; with Odorant receptor coreceptor
T2 sequence (C6K7C1 1-422): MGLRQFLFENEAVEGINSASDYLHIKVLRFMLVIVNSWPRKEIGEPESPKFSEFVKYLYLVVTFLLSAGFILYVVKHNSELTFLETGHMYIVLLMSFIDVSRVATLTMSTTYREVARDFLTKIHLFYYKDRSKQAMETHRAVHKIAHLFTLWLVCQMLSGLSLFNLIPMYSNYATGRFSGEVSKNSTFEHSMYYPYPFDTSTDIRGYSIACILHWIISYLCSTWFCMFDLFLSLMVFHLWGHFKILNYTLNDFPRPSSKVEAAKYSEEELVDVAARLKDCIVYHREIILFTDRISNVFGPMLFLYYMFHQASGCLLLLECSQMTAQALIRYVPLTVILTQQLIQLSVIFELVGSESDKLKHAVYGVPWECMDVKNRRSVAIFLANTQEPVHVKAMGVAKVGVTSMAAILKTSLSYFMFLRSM
T2 sequence (A7UGE1 1-473 partner): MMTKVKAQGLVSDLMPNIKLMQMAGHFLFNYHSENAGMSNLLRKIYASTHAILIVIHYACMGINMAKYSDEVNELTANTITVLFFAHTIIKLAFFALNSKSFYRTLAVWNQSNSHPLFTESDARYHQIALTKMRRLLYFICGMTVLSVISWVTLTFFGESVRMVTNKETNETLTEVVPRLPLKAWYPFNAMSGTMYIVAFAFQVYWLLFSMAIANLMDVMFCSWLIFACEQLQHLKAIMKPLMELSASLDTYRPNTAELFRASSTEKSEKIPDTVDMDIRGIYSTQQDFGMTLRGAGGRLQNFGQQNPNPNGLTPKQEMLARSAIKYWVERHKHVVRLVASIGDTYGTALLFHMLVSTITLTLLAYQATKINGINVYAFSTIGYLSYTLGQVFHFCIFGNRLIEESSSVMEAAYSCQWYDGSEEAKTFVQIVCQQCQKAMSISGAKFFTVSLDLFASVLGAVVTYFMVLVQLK

HassOR6/Orco = biological target: T3, HassOR6/Orco (Helicoverpa assulta, UniProt R4JLZ7); conditions: agonist, main ligand; with Orco
T3 construct: gene OR6; full ORF in pT7Ts, cRNA co-expressed with Orco in Xenopus oocytes; with Odorant receptor coreceptor
T3 sequence (R4JLZ7 1-425): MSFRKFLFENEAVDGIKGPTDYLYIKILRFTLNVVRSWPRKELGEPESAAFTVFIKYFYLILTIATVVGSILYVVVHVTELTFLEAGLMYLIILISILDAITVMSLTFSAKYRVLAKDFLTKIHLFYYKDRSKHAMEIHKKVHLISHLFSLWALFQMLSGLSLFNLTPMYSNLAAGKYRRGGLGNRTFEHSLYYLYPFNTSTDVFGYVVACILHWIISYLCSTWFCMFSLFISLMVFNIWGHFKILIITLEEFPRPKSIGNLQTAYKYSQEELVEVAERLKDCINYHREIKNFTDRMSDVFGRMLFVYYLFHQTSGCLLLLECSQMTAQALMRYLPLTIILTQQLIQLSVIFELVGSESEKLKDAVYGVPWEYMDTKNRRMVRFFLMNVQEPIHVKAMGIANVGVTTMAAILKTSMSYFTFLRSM
T3 sequence (A7UGE1 1-473 partner): T2 sequence (A7UGE1 1-473 partner)

HassOR13/Orco = biological target: T4, HassOR13/Orco (Helicoverpa assulta, UniProt A0A0B4ZYC6); conditions: agonist; with Orco
T4 construct: gene OR13; full ORF in pT7Ts, cRNA co-expressed with Orco in Xenopus oocytes; with Odorant receptor coreceptor
T4 sequence (A0A0B4ZYC6 1-425): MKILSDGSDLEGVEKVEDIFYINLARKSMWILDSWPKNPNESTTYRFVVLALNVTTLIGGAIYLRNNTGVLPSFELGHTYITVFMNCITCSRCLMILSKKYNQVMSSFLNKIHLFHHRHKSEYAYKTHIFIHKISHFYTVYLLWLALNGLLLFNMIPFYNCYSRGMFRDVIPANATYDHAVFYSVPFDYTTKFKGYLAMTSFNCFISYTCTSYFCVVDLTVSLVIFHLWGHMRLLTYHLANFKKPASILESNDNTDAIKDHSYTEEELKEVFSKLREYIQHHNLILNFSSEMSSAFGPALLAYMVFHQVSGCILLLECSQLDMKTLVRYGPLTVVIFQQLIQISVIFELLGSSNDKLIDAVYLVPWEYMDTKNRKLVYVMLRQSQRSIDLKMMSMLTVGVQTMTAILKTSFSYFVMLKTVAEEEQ
T4 sequence (A7UGE1 1-473 partner): T2 sequence (A7UGE1 1-473 partner)

How did the inward current response (HarmOR14b/HarmOrco) turn out when `CCCC/C=C\CCCCCCCC=O` [Z9-14:Ald] was run?
Its inward current response is “this receptor, when expressed in Xenopus oocytes, responds specifically to Z9-14:Ald”.

What about the current response (HassOR16/Orco) of the same molecule?
The current response was “HassOR13/Orco and HassOR16/Orco were narrowly tuned to Z11-16:Ald and Z9-14:Ald respectively”.

`CCCCCC/C=C\CCCCCCCCO` [Z9-16:OH] was tested. Which current response (HassOR6/Orco) did it give?
The current response was “HassOR6/Orco responded mainly to Z9-16:OH”.

`CCCC/C=C\CCCCCCCCCC=O` [Z11-16:Ald, (Z)-11-hexadecenal] was tested. Which current response (HassOR13/Orco) did it give?
The current response was “HassOR13/Orco and HassOR16/Orco were narrowly tuned to Z11-16:Ald and Z9-14:Ald respectively”.
